Here are results for five compounds from patent US10350262B2, “MCJ agonists and uses therefor” (priority 2015, dated 2019).

The subject of experiment [1] is Molm13 cells. The experiment is described as follows: Viable cell number of Molm13 AML cells. Particulars: 3 days. Type of experiment: cell-based.
In the next experiment the test system is MCF7/siMCJ cells. The experiment is described as follows: Confocal microscopy for doxorubicin accumulation. The format is cell-based, human. The settings on record: oligomycin 5 μM with doxorubicin 3 μM, 4 h; vs doxorubicin alone. As to the method:
Confocal microscopy for doxorubicin accumulation. MCF7/siMCJ cells were seeded on BD Biocoat coverslips (BD Biosciences, Bedford, Mass.) the day before the treatment. At 20 h, oligomycin (5 μM) or medium was added to the cell. After 3 h, doxorubicin (3 μM) was added and cells were further incubated for 4 h. Cells were washed with PBS and fixed in 3.7% paraformaldehyde. […] For nuclear staining, DAPI (Molecular Probes, Eugene, Oreg.) was used. Cells were visualized by confocal microscopy (Zeiss LSM 510 META Confocal Laser Scanning Imaging System, Carl Ziess Microimaging Inc, Thronwood, N.Y.). The term: MCF7/siMCJ and siMCJ/MCF7 is used interchangeably herein. Experiments were performed to determine whether reducing mitochondrial respiration in cancer cells restores the cells' sensitivity to chemotherapeutic agents. […] MCF7/siMCJ cells were treated with doxorubicin alone or doxorubicin and oligomycin (an inhibitor of Complex V/ATP synthase) at a concentration of 5 μM for 4 h. Doxorubicin intrinsic fluorescence in the cells was viewed by confocal microscopy. The DAPI dye was used as a nuclear maker.

The test system of experiment [2] is MCF7/ADR cells. The experiment is described as follows: Viable cell count of MCF7/ADR cells (Trypan blue). Type of experiment: cell-based, human. As to the method: (§1) FIG. 15A provides results of Western blot analysis for MCJ in MCF7 cells and MCF7/ADR (ADR) cells. Actin was used as loading control. […] Viable cells were counted 2 days later.
FIG. 16A-B provides graphs showing response to MCJ agonists. […] Cells were harvested 2 days later and viable cells were counted. […] Mice were harvested at day 4. The size of a tumor over time was determined by caliper measurements, and is represented as a percentage relative to the initial size prior to the treatment. p<0.05 as determined by a paired t-test.
(§2) Cell Culture. MCF7 and MCF7/ADR cells were a kind gift from Dr. Ken Cowan (National Cancer Institute, Bethesda, Md.). MCF7/siMCJ cells were generated by stable transfection with a plasmid expressing a shRNA for MCJ (siMCJ) as described in Hatle, K. M., et al., Mol Cell Biol 27, 2952-2966 (2007). All cells were maintained at 37 C, 5% CO2 in RPMI-1640 (Life technologies, Inc., Gaithersburg, Md.) containing 5% FBS.
(§3) Cell count. Cells were trypsinized, washed, and resuspended in medium. Number of viable cells was measured by counting using Trypan blue dye to exclude dead cells (visualized as blue).
(§4) Doxorubicin and peptides treatment in vitro. Doxorubicin (Sigma-Aldrich) was used at 3 μM final concentration. The three different peptides described in the examples (SEQ ID NO: 2, 18 or 6) were resuspended at 10 mM stock concentration in PBS. The peptides were used a different concentration as indicated for each example (1, 10, or 50 μM). Cells were plated the day prior the treatment (18-20 h prior to the treatment). For treatments with peptides only, peptides were added to the plates at the indicated concentrations, and after 2 or 3 days (as indicated for each example) cells were trypsinized, resuspended, and counted. For the treatment with doxorubicin and peptides, cells were pretreated with the corresponding peptide for 4 h prior to adding doxorubicin.
MCF7/ADR cells were incubated (using standard procedures) for three days in media alone or in media plus three different MCJ based polypeptides each at a concentration of 50 μM in media. The cells of set one were incubated in media and served as a control set. The cells of set two were incubated in media that included a 50 μM concentration of a MCJ polypeptide without a targeting agent polypeptide. The amino acid sequence of the N-MCJ polypeptide without a targeting agent polypeptide was […] (SEQ ID NO:2). The cells of set three were incubated in media that included a 50 μM concentration of a TAT-N-MCJ polypeptide. The amino acid sequence of the TAT-N-MCJ polypeptide was: […] (SEQ ID NO:18). […]

The subject of the next experiment is MCF7 cells. The experiment is described as follows: Viable cell count of MCF7 cells (Trypan blue). Type of experiment: cell-based, human. The settings on record: 25 μM, 2 days.
Excerpt: as §1, §2, §3, §4
MCF7 cells and MCF7/ADR cells were incubated (using standard procedures) for two days in media alone or in media that included different concentrations of the TAT-N-MCS-MTS polypeptide having the amino acid sequence set forth as: […]

Experiment [3] has as its system Molm13 cells. Nature of the experiment: Mitochondrial membrane potential by TMRE staining, flow cytometry. The format is cell-based. The settings on record: 22 h. As to the method:
(§5) FIG. 17A-D provides graphs of results showing MCJ agonist inhibition of AML. FIG. 17A-B show results when Molm13 cells (10^4 cells) were incubated in the presence of medium, TAT-N-MCJ-mts peptide (TAT) (25 μM), MITO-N-MCJ peptide (25 μM), AC220 (2 nM) or the combination of the peptides with AC220. Numbers of viable cells was measured after 3 days. […] The percentage of live cells negative for TMRE (TMREneg) is shown. […] The percentage of live PY1^+ cells is shown.
(§6) Experiments were also performed to assess the effect of MCJ agonists on mitochondrial membrane potential by staining with the TMRE dye. Given the more modest effects observed for TAT-N-MCJ-mts (FIG. 17A-B), 50 μM of this peptide was used in the experiments. […] AML cells are sensitive to the levels of reactive oxygen species (ROS), which are primarily generated in mitochondria as a result of electron leakage from the ETC. It was previously shown that MCJ can interfere with the formation of ETC respiratory supercomplexes [Hatle, K., et al., (2013) Mol Cell boil 33:2302-2314] that are formed to facilitate electron transport between complexes and minimize electron leakage [see Acin-Perez, R. et al., (2008) Mol Cell 32:529-539 and Lapuente-Brun, E. et al., (2013) Science 340:1567-1570]. […] The effect of the MCJ agonists was already observed after 5 h of treatment. […]

In experiment [4] the test system is Molm13 cells. The experiment is described as follows: Mitochondrial ROS (mROS) by PY1 staining, flow cytometry. The settings on record: 22 h. Type of experiment: cell-based. As to the method:
as §5, §6
In general terms: A flow cytometer gives signals particle by particle.

Experiment [5] has as its system MCF7/ADR cells. The experiment is described as follows: Seahorse MitoStress assay, oxygen consumption rate (OCR). The format is cell-based, human. The method, then: FIG. 14A-C provides graphs showing effect of MCJ agonist polypeptides on OCR and respiratory capacity of cells. […] Cells pretreated with medium alone (medium), TAT-N-MCJ-mts peptide (TAT peptide) (50 μM) (FIG. 14A) or MITO-N-MCJ peptide (Mito peptide) (25 μM) (FIG. 14B) for the last 9 h prior to the MitoStress assay as described elsewhere herein. Standard flow chart for the treatments as recommended by the manufacturer (Seahorse Bioscience, Billerica, Mass.) was used: oligomycin (O), FCCP (F) and rotenone and antimycin (R+A). […] Oligomycin was replaced by vehicle (buffer) or MITO-N-MCJ peptide.
Human breast cancer cell lines MCF7 cells with siRNA-mediated knockdown of MCJ (MCF7/siMCJ cells) have increased Complex I activity. Experiments were performed to examine the effect of MCJ on mitochondrial respiration using the Seahorse X24 analyzer and the MitoStress assay (used in examples herein according to manufacturer's protocols) that measures mitochondrial oxygen consumption rate (OCR), a well-accepted proxy for mitochondrial respiration (Seahorse Bioscience, North Billerica, Mass.). […] In addition, maximum respiratory capacity (determined after addition of the mitochondrial uncoupler FCCP) was also drastically higher in MCF7/siMCJ cells (FIG. 12A). Moreover, Seahorse MitoStress analysis of OCR in primary mammary tumor cells from MMTV-Py mice [Guy, C.
The agonist polypeptides were tested to determine whether they would restore particular MCJ functions and the effect of the agonist polypeptides in mitochondrial respiration was examined. […] OCR was determined by the Seahorse analyzer in MCF7/ADR cells and MCF7/ADR cells that were pretreated with the TAT-N-MCJ-mts peptide for 9 h.
Assays were performed to examine the effect of MITO-N-MCJ peptide on mitochondrial respiration when added directly on cells ongoing Seahorse mito-stress analysis. In this case, OCR was first measured at the basal level and then either vehicle (Seahorse buffer) or the MITO-N-MCJ peptide was added in one of the ports from Seahorse. […]

Experiment [6] deals with MCF7/ADR cells. The experiment is described as follows: Bright field microscopy of MCF7/ADR cells. The format is cell-based, human. Particulars: 50 μM, two days; relative to medium only. As to the method: FIG. 3 provides photomicrographic images of MCF7/ADR cells that were incubated for two days in column (1) media alone; column (2) media that included a 50 μM concentration of an N-MCJ polypeptide (SEQ ID NO:2); column (3) media that included a 50 μM concentration of the TAT-N-MCJ polypeptide (SEQ ID NO:18); and column (4) media that included a 50 μM concentration of the TAT-N-MCJ-MTS polypeptide (SEQ ID NO:6).
Bright Field Microscopy. Live cells were imaged at an inverted bright field microscope (Leica Microsystems). 400× magnification was used.

The mark [7] stands for this setting: 25 μM in combination with AC220 2 nM.

Non-standard residues stand in square brackets, D forms with d. No end group written: not given here. Cha = N[C@@H](CC1CCCCC1)C(=O)O

As to `CC(C)(C)c1cc(NC(=O)Nc2ccc(-c3cn4c(n3)sc3cc(OCCN5CCOCC5)ccc34)cc2)no1` [AC220, reference compound], in the experiment with Molm13 cells [1] (AC220 2 nM), the “viability (number of viable cells)” value is reported as “effective at inducing Molm13 cell death”.

Take `CC[C@H]1/C=C/C=C/C[C@@H](C)[C@H](O)[C@@](C)(O)C(=O)[C@@H](C)[C@H](O)[C@@H](C)C(=O)[C@@H](C)[C@H](O)[C@@H](C)/C=C/C(=O)O[C@@H]2[C@H](C)[C@H](CC1)O[C@]1(CC[C@H](C)[C@H](C[C@@H](C)O)O1)[C@H]2C` [oligomycin]: the “doxorubicin accumulation (intrinsic fluorescence, nucleus)” value in the experiment with MCF7/siMCJ cells is “doxorubicin accumulation (in the nucleus) only in MCF7/siMCJ cells treated with doxorubicin and oligomycin”.

As to “FxRFxKFxRFxKMAARGVIAPVGESLRYAEYL ([Cha]R[Cha]K[Cha]R[Cha]KMAARGVIAPVGESLRYAEYL) [MITO-N-MCJ, Fx is cyclohexylalanine]”, in the experiment on MCF7/ADR cells [2] (25 μM, peptide by itself, 2 days), the “expansion of cells (viable cells)” value was “drastic effect in limiting the expansion of these resistant cells”. Further, in the experiment on MCF7/ADR cells [2] (MITO-N-MCJ greater than TAT peptide), the “efficacy relative to the TAT-N-MCJ peptide” value is on record as 2-3 times. Further, in the experiment on MCF7 cells, the “effect on viable cells” value is recorded as “neither of the two MCJ agonists had an effect on MCF7 cells”. In addition, the “viability (number of viable cells)” value in the experiment on Molm13 cells [1] (peptide 25 μM alone) is “profound effect on Molm13 cells, leading to substantial cell death”. Besides, the “cells refractory to AC220 (number of viable cells)” value in the experiment with Molm13 cells [1] (peptide 25 μM in combination with AC220 2 nM) is given as “effectively eliminated this resistant group”. In addition, the “mitochondrial membrane potential (TMRE negative live cells)” value with Molm13 cells [3] (setting [7]) is “the most remarkable effect”; with Molm13 cells [3] (25 μM), “caused a loss of mitochondrial membrane potential (TMRE negative cells) in a fraction of Molm13 cells”. Moreover, the “production of mROS (live PY1+ cells)” value in the experiment on Molm13 cells [4] (setting [7]) is on record as “clearly synergized with AC220 to cause a massive production of mROS”; with Molm13 cells [4] (25 μM), “could induce the production of mROS”. Moreover, the “effect on OCR” value with MCF7/ADR cells [5] (25 μM, pretreated 9 h, compared with TAT-N-MCJ-mts) is listed as “even more pronounced”. Further, the “mitochondrial respiration (OCR)” value with MCF7/ADR cells [5] (peptide added directly during the assay, OCR measured during 180 min, vs vehicle) was “marked reduction of mitochondrial respiration”. The “maximum respiratory capacity (after FCCP)” value with MCF7/ADR cells [5] (peptide added directly during the assay, vs vehicle only) is “severely compromised”.

In the case of “MAARGVIAPVGESLRYAEYL (listed as Homo sapiens) [N-MCJ]”, the “proliferation / cells attached to the culture plate (photomicrographs)” value in the experiment on MCF7/ADR cells [6] is given as “did not affect proliferation of the cells”.

For the compound “YGKKRRQRRGMAARGVIAPVGESLRYAEYL [TAT-N-MCJ]”, in the experiment with MCF7/ADR cells [2] (control peptide lacking the mts), the “expansion of cells (viable cells)” value was “had no effect”. Further, the “proliferation / cells attached to the culture plate (photomicrographs)” value with MCF7/ADR cells [6] is recorded as “did not affect proliferation of the cells”.
